In series [1] the test system is C. albicans. Conditions: cited from earlier work.
In series [2] the test system is C. glabrata. Put plainly: Broth microdilution antifungal assay (CLSI M27-A2), clinical isolates. In kind it is cell-based, Candida glabrata. As to the method: (§1) Clinical isolates were provided by the Microbiology Department of the Medical School, UANL: isolates 97 and 98 of C. albicans, isolates 83 and 84 of C. glabrata, isolates 95 and 96 of C. parapsilosis, isolates 105 and 166 of C. tropicalis, and isolates 137 and 168 of C. krusei.
(§2) Inoculates from the above-mentioned isolates were prepared and growing on Sabouraud agar. The extracts were tested using microdilution assay according to the protocol M27-A2 defined by the Clinical Laboratory Standards Institute. Two clinical isolates were used for each species of Candida, and each test was made in duplicate. Isolates 83 and 84 of C. glabrata are resistant strains to fluconazole. Serial two-fold dilutions ranging from 2 to 500 μg/mL were made for all extracts, fractions, and isolated compounds. The minimal inhibitory concentration (MIC) was defined as the lowest tested extract concentration that inhibits 100% of organism growth compared to the growth of the drug-free control.
(In broth dilution the organism is exposed to a series of concentrations in liquid medium.)

Series [3] has as its system C. parapsilosis. The description is as above. In kind it is cell-based, Candida parapsilosis. Here is the method: as §1, §2
Series [4] deals with Candida albicans. Described as above. In kind it is cell-based. As to the method:
as §1, §2

The test system of series [5] is C. tropicalis. The description is as above. In kind it is cell-based, Candida tropicalis. Here is the method:
as §1, §2

Series [6] has as its system C. krusei. The description is as above. In kind it is cell-based, Candida krusei. Here is the method:
as §1, §2

Series [7] can be described thus: In vitro cytotoxic assay on Vero cell line (MTT). In kind it is cell-based. Conditions: African green monkey, Vero cells, mean (n = 3) ± SD. Here is the method: The cytotoxicity assay was performed by the 3-(4,5-dimethylthiazol-2-yl) 2,5-diphenyltetrazolium bromide (MTT) assay as previously described. The Vero cell line was maintained in DMEM supplemented with 2% FBS, streptomycin, and penicillin at 1%. All cell cultures were incubated at 37 °C in a humidified atmosphere of 5% CO2. Cells were harvested, counted, and transferred into 96 well plates and incubated for 24 h prior to the addition of test compounds. Serial dilutions of test samples were prepared by dissolving compounds in DMSO followed by dilution with DMEM to yield the final DMSO concentration in the assay well as 1%. Stock solutions of fractions and compounds 1, 2, and 3 were prepared at […] and diluted further to yield concentrations ranging from 2000–15.6 μg/mL. The plates were incubated for 48 h. MTT (3-[4,5-dimethylthiazol-2-yl]-2,5-diphenyltetrazolium bromide) (5 mg) was dissolved in 1 mL of Phosphate Buffer Solution (PBS) and 10 μL of it was added to each of the 96 wells. The plates were incubated at 37 °C for 3 h. The solution in each well-containing media, unbound MTT and dead cells were removed by suction and 100 μL of DMSO was added to each well. The plates were then shaken and optical density was recorded using a microplate reader at 540 nm. Doxorubicin was used as positive control and DMSO as solvent control. The CC50 was determined as the concentration of extract required reducing cell viability by 50%, taking as 100%, the untreated cells. The experiments were performed in triplicate for each extract. In parallel, we performed the same experiment using untreated cells as a control.

The nature of series [8]: Brine shrimp lethality bioassay. The conditions noted are these: Artemia salina, in vivo; 24 h counts, mean (n = 3) ± SD. Here is the method:
In order to evaluate the toxicity of the compounds with antifungal activity obtained during separation, a test of lethality to Artemia salina brine shrimp was made. Concentrations of 1, 10, 100, and 500 ppm of each active fraction and each compound were tested. […] LC50 values greater than 200 ppm were considered non-toxic.

For series [9], the system named is Candida glabrata. Conditions: cited from earlier work.
The subject of series [10] is C. krusei. The conditions noted are these: C. krusei ATCC 20298; cited from earlier work.
Series [11] concerns C. parapsilosis. Conditions: C. parapsilosis ATCC 20019; cited from earlier work.
In series [12] the test system is C. tropicalis. The arrangement: method as in doi:10.1016/j.phytol.2015.02.006. The conditions noted are these: C. tropicalis ATCC 750; cited from earlier work.
Where [13] appears, read: Nakaseomyces glabratus, Cg isolate 83, fluconazole-resistant clinical isolate, read-out: MIC.
Setting [14] is: Nakaseomyces glabratus, Cg isolate 84, fluconazole-resistant clinical isolate, read-out: MIC.
[15] abbreviates: Lodderomyces parapsilosis, Cp isolate 95, read-out: MIC.
Where [16] appears, read: Lodderomyces parapsilosis, Cp isolate 96, read-out: MIC.
The mark [17] stands for this setting: Candida albicans, Ca isolate 97, read-out: MIC.
[18] abbreviates: Candida tropicalis, Ct isolate 105, read-out: MIC.
Where [19] appears, read: Pichia kudriavzevii, Ck isolate 137, read-out: MIC.
Where [20] appears, read: Pichia kudriavzevii, Ck isolate 168, read-out: MIC.
[21] abbreviates: Nakaseomyces glabratus, C. glabrata, isolate not stated, read-out: MIC.

≈ marks a conversion by molar mass, not a printed value. Like-named read-outs stand apart in the source and are kept apart here. Bounds are passed on as bounds.

A word on the MIC: it is the lowest concentration found to suppress growth. As for “Kaempferol-3-O-rutinoside [reference compound]”, in series [1] (Candida albicans ATCC 14053 and ATCC10231), the MIC was 500 µg/mL.

As to `OC(Cn1cncn1)(Cn1cncn1)c1ccc(F)cc1F` [Fluconazol, reference compound], the MIC in series [2] (setting [13]) was 32 µg/mL (≈ 104 µM); in series [2] (setting [14]) it was 63 µg/mL (≈ 206 µM); in series [3] (setting [15]), 0.5 µg/mL (≈ 1.63 µM); in series [3] (setting [16]), 1 µg/mL (≈ 3.27 µM); in series [4] (Ca isolate 98), 4 µg/mL (≈ 13.1 µM); in series [4] (setting [17]), 4 µg/mL (≈ 13.1 µM). For the same molecule, the MIC in [5] (setting [18]) was determined as 2 µg/mL (≈ 6.53 µM); in series [5] (Ct isolate 166), 2 µg/mL (≈ 6.53 µM); in [6] (setting [19]) it was 32 µg/mL (≈ 104 µM); in series [6] (setting [20]), 4 µg/mL (≈ 13.1 µM).

As a reminder, the CC50 is the concentration that lowers cell viability or growth by half. A high value points to better tolerance by the cells. As usually defined, the LC50 is the concentration that kills 50% of the test population. Read a high LC50 as a less lethal substance. As for `C[C@@H]1O[C@@H](Oc2c(-c3ccc(O)cc3)oc3cc(O)cc(O)c3c2=O)[C@H](O[C@@H]2OC[C@@H](O)[C@H](O)[C@H]2O)[C@H](O)[C@H]1O` [Compound 3, kaempferol 3-O-α-L-rhamnopyranosyl-L-(2→1)-O-β-xylopyranoside], the MIC is 16 µg/mL (≈ 28.3 µM) in series [2] (setting [21]); 16 µg/mL (≈ 28.3 µM) in series [2] (setting [13]); 16 µg/mL (≈ 28.3 µM) in series [2] (setting [14]); over 500 µg/mL in series [3] (setting [15]); over 500 µg/mL in series [3] (setting [16]); over 500 µg/mL in series [4] (Ca isolate 98). Moreover, the MIC in series [4] (setting [17]), in series [5] (setting [18]), in series [5] (Ct isolate 166), in series [6] (setting [19]) and in [6] (setting [20]) was over 500 µg/mL each time. The CC50 at 48 h in series [7] is over 2000 µg/mL. Moreover, in series [8], the LC50 at 24 h is 254.8 ± 0.024 µg/mL (≈ 451 µM).

On to `C[C@@H]1O[C@@H](Oc2c(-c3ccc(O)c(O)c3)oc3cc(O)cc(O)c3c2=O)[C@H](O[C@@H]2OC[C@@H](O)[C@H](O)[C@H]2O)[C@H](O)[C@H]1O` [Compound 2, quercetin 3-O-α-L-rhamnopyranosyl-L-(2→1)-O-β-xylopyranoside], for which the MIC was 63 µg/mL (≈ 109 µM) in series [2] (setting [21]); 63 µg/mL (≈ 109 µM) in [2] (setting [13]); 63 µg/mL (≈ 109 µM) in [2] (setting [14]); over 500 µg/mL in series [3] (setting [15]); over 500 µg/mL in series [3] (setting [16]); over 500 µg/mL in series [4] (Ca isolate 98). Further, the MIC in series [4] (setting [17]), in [5] (setting [18]), in series [5] (Ct isolate 166), in series [6] (setting [19]) and in series [6] (setting [20]) was over 500 µg/mL each time. Moreover, in series [7], the CC50 at 48 h is over 2000 µg/mL. The molecule further showed an LC50 at 24 h in series [8] of 322.8 ± 0.009 µg/mL (≈ 556 µM).

As to `O=c1c(O)c(-c2ccc(O)cc2)oc2cc(O)cc(O)c12` [kaempferol, reference compound], the MIC in series [9] (six clinical isolates of Candida glabrata including one resistant to fluconazole) is on record as 31.5 µg/mL (≈ 110 µM).

For the molecule `C[C@@H]1O[C@@H](Oc2c(-c3ccc(O)c(O)c3)oc3cc(O)cc(O)c3c2=O)[C@H](O)[C@H](O)[C@H]1O` [Compound 1, quercetin 3-O-α-L-rhamnoside], the MIC in [2] (Cg isolate 83, fluconazole-resistant clinical isolate) came to 16 µg/mL (≈ 35.7 µM); in [2] (Cg isolate 84, fluconazole-resistant clinical isolate), 16 µg/mL (≈ 35.7 µM); in series [2] (Nakaseomyces glabratus) it was 16 µg/mL (≈ 35.7 µM); in series [3] (Cp isolate 95), 125 µg/mL (≈ 279 µM); in series [3] (Cp isolate 96), 125 µg/mL (≈ 279 µM); in series [3] (Lodderomyces parapsilosis) it was 125 µg/mL (≈ 279 µM). Besides, the MIC is 500 µg/mL (≈ 1120 µM) in [4] (Ca isolate 97); 500 µg/mL (≈ 1120 µM) in [4] (Ca isolate 98); 500 µg/mL (≈ 1120 µM) in [4] (Candida albicans); over 500 µg/mL in [5] (Candida tropicalis); over 500 µg/mL in series [5] (Ct isolate 166); 500 µg/mL (≈ 1120 µM) in series [6] (Ck isolate 137). In addition, the MIC in series [6] (Ck isolate 168) was 500 µg/mL (≈ 1120 µM); in [6] (Pichia kudriavzevii), 500 µg/mL (≈ 1120 µM); in [1] (C. albicans ATCC 18804), “below 250 μg/mL”; in [9] (isolates 510, 493, 482, 531 of C. glabrata), 7.8 µg/mL (≈ 17.4 µM); in series [10], “below 250 μg/mL”; in series [11], “below 250 μg/mL”. For the same molecule, in series [12], the MIC entry is on record as “below 250 μg/mL”. Also, the 50% cytotoxic concentration (CC50) at 48 h in [7] stood at 1660 ± 81 µg/mL (≈ 3700 µM). This molecule also came in with an LC50 at 24 h in series [8] of over 500 µg/mL.
